# Paper PMC6337391 (Molecules, 2019)
# Columns and labels:
# [1] = ABTS•+ decolorization assay
# Method in brief: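 Compounds (10 mM DMSO stocks, diluted) added to ABTS•+ radical generated by potassium persulfate oxidation of ABTS. Decolorization followed as absorbance at room temperature, with Trolox as standard.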
# [2] = target: acetyl-cholinesterase (AChE) (Electrophorus electricus, UniProt O42275); format: biochemical
# Method: We investigated, in vitro, the inhibitory activity of a, b, c, and e derivatives on acetylcholinesterase activity using acetylthiocholine as a substrate [29].
# A modified procedure which was followed in our previous publication was performed [29]. A stock solution (10 mM) of the compounds diluted in DMSO was used (final concentration 100 µM).
# [3] = Inhibition of linoleic acid lipid peroxidation (AAPH)
# Method in brief: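 Sodium linoleate oxidation was initiated by AAPH in 0.05 M phosphate buffer, pH 7.4, at 37 °C, with test compound present and DMSO as blank. Conjugated diene hydroperoxide formation was followed as the absorbance increase at 234 nm.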
# [4] = target: T1, soybean lipoxygenase (Glycine max, UniProt P08170); assay: biochemical; format: biochemical; settings: soybean LOX
# T1 sequence (P08170 1-839): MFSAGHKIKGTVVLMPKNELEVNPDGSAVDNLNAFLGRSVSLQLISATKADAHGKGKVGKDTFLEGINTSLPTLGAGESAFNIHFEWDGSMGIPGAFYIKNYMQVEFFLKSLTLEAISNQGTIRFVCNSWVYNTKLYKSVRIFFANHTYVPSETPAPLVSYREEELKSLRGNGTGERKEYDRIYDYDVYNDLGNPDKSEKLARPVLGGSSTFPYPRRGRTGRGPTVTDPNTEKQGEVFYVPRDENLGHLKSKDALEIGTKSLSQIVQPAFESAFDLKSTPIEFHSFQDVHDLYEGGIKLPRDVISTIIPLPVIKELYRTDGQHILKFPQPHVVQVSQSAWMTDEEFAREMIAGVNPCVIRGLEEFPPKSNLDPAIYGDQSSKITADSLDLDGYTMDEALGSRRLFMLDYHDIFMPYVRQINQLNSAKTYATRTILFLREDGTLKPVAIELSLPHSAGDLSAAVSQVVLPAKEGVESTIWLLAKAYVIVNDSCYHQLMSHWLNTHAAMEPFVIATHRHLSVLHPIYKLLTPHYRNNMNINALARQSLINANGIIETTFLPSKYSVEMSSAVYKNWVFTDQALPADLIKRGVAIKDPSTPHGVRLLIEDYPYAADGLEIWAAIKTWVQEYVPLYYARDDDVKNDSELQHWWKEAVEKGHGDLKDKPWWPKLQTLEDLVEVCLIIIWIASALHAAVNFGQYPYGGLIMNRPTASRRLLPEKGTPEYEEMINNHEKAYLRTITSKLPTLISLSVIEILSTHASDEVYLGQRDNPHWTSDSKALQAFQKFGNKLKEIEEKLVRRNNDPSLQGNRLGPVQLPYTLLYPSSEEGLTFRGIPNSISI
# Method in brief: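 Soybean LOX (enzyme solution 1/9 × 10^−4 w/v in saline) incubated at room temperature with sodium linoleate ([…]) in tris buffer pH 9. Compounds added from DMSO stocks. IC50 derived from several concentrations.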
# [5] = Reducing activity with the stable radical DPPH
# Method in brief: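 DPPH (final 0.05 mM) in absolute ethanol mixed with an equal volume of compound at 0.05 or 0.1 mM, ethanol as control. Absorbance at 517 nm read at room temperature after 20 and 60 min, expressed as reducing activity RA%.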
# [6] = tested on: L929 mouse fibroblasts cells; assay: Cytotoxicity, propidium iodide fluorescence method; format: cell-based; settings: 24-h incubation
# Method in brief: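 L929 cells in EMEM with 10% horse serum were allowed to attach for 24 h, then exposed to 1, 10, 20, 50 and 100 μM compound for 24 h at 37 °C. Cells were detached, stained with propidium iodide, and cell death was measured by flow cytometry.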
# [7] = Lipophilicity as RM values by RP-TLC; format: physicochemical; parameters: key: RM = log[(1/Rf) − 1]; settings: methanol/water 70/30, SD < 10%
# Method in brief: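 Reversed-phase TLC on silica gel plates impregnated with 5% (v/v) liquid paraffin, methanol/water 70/30 (v/v) mobile phase, saturated tanks at 24 °C, UV detection. RM = log[(1/Rf) − 1] from five Rf measurements.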
# Sequence of acetyl-cholinesterase (AChE) (O42275 24-633): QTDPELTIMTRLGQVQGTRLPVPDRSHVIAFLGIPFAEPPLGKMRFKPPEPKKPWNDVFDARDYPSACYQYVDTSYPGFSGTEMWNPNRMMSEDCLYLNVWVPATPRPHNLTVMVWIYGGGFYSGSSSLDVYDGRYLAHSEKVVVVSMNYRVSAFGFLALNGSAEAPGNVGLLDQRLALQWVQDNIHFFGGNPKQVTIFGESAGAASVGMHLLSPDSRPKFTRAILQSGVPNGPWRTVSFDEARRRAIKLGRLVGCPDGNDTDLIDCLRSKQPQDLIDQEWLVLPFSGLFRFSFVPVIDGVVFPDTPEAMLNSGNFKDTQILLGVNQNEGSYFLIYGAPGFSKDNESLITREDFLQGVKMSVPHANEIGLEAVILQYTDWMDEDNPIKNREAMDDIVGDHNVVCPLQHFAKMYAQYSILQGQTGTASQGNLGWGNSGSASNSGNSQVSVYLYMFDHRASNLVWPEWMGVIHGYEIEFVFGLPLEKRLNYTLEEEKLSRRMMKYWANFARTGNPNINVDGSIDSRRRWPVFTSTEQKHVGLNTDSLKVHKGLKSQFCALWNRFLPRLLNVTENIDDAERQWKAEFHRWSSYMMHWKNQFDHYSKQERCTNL
Compound,ABTS•+ Inhb. % @ 100 μM [1],% AChE Inhb. @ 100 μM [2],AAPH% @ 100 μM (anti-lipid peroxidation) [3] [%],% LOX Inhb. @ 100 μM [4] [%],RA% 100 μM 20 min [5],RA% 100 μM 60 min [5],1 μM Average (% pi) ± σ [6] [%],10 μM Average (% pi) ± σ [6] [%],20 μM Average (% pi) ± σ [6] [%],50 μM Average (% pi) ± σ [6] [%],100 μM Average (% pi) ± σ [6] [%],RM [7],IC50 ([4]; read-out: LOX IC50) [µM]
"O=C(/C=C/C1=C2C=CC=CC2NC1)c1ccc(O)cc1 (stereo not shown) [a6, (E)-3-(2,7a-dihydro-1H-indol-3-yl)-1-(4-hydroxyphenyl) prop-2-en-1-one]",No,Νο,45,60,15%,2%,1.71 ± 2.08,1.66 ± 0.59,3.25 ± 2.6,6.67 ± 1.35,6.67 ± 1.35,−0.65,–
"O=C(/C=C/c1c[nH]c2ccccc12)c1ccc(OCCCOc2ccc(C(=O)/C=C/c3c[nH]c4ccccc34)cc2)cc1 [c6, (2E,2′E)-1,1′-((propane-1,3-diylbis(oxy))bis(4,1-phenylene))bis(3-(1H-indol-3-yl)prop-2-en-1-one)]",No,did not present any activity and Νο,100,98,No,No,1.12 ± 1.15,2.2 ± 1.66,1.16 ± 0.81,3.03 ± 0.02,3.03 ± 0.02,−0.97,54
